Experimental data published in patent US4379148A, “Analgesic and anti-inflammatory composition” (priority 1981, dated 1983).

test system: not listed separately; test: Anti-inflammatory Test by Whittle's Method (acetic acid, dye in peritoneal exudate); type: in vivo, Male ddY mice; details: Mus musculus, po, read-out: ED30 (dose which decreased the amount of dye of the control group by 30%), drug alone
Description: Male ddY mice (18-22 g) fasted for 18 hours were divided into test groups and a control group of 7 or 8 animals each. […] Ten minutes later, 10 ml/kg of 0.7% acetic acid dissolved in physiological saline was injected intraperitoneally into all animals and 20 minutes thereafter the animals were sacrificed. The amount of the dye in the peritoneal exudate was determined at 590 nm by using a spectrophotometer (Hitachi Instrument Co.). The ED30 was defined as the dose which decreased the amount of dye of the control group by 30%, and was determined graphically.

For CC(C(=O)O)c1ccc(-c2ccccc2)c(F)c1 (centres unmarked) [Flurbiprofen], the ED30 was 4 mg/kg.

same assay, conditions: Mus musculus, po; read-out: ED30 (dose which decreased the amount of dye of the control group by 30%), drug alone

Point of comparison: CC(=O)Oc1ccccc1C(=O)O [Acetylsalicylic acid, acetylsalicylic acid], ED30 225 mg/kg. Against it:
- CCOc1c(N2CCOCC2)cnn(C)c1=O [Emorfazone, 4-ethoxy-2-methyl-5-morpholino-3(2H)-pyridazinone] — 2-fold lower, 115 mg/kg
- CC(C)Cc1ccc(C(C)C(=O)O)cc1 (centres unmarked) [Ibuprofen] — 3-fold lower, 76 mg/kg

same assay, conditions: p.o.; combined with emorfazone 28.8 mg/kg

Point of comparison: CC(=O)Oc1ccccc1C(=O)O [Acetylsalicylic acid, acetylsalicylic acid], “ED30 dose obtained experimentally, with emorfazone 28.8” value 160 mg/kg. Against it:
- CC(C(=O)O)c1ccc(-c2ccccc2)c(F)c1 (centres unmarked) [Flurbiprofen] — 57-fold lower, 2.8 mg/kg
- CC(C)Cc1ccc(C(C)C(=O)O)cc1 (centres unmarked) [Ibuprofen] — 2.9-fold lower, 56 mg/kg

same assay, conditions: p.o.; combined with emorfazone 28.8 mg/kg; theoretical additive dose

Point of comparison: CC(C)Cc1ccc(C(C)C(=O)O)cc1 (centres unmarked) [Ibuprofen], “theoretical additive ED30 dose, with emorfazone 28.8” value 57 mg/kg. Against it:
- CC(=O)Oc1ccccc1C(=O)O [Acetylsalicylic acid, acetylsalicylic acid] — 3-fold higher, 168.8 mg/kg
- CC(C(=O)O)c1ccc(-c2ccccc2)c(F)c1 (centres unmarked) [Flurbiprofen] — 19-fold lower, 3.0 mg/kg

same assay, conditions: p.o.; combined with emorfazone 86 mg/kg

Point of comparison: CC(=O)Oc1ccccc1C(=O)O [Acetylsalicylic acid, acetylsalicylic acid], “ED30 dose obtained experimentally, with emorfazone 86” value 110 mg/kg. Against it:
- CC(C(=O)O)c1ccc(-c2ccccc2)c(F)c1 (centres unmarked) [Flurbiprofen] — 58-fold lower, 1.9 mg/kg
- CC(C)Cc1ccc(C(C)C(=O)O)cc1 (centres unmarked) [Ibuprofen] — 3-fold lower, 37 mg/kg

same assay, conditions: p.o.; combined with emorfazone 86 mg/kg; theoretical additive dose

Point of comparison: CC(C(=O)O)c1ccc(-c2ccccc2)c(F)c1 (centres unmarked) [Flurbiprofen], “theoretical additive ED30 dose, with emorfazone 86” value 2 mg/kg. Against it:
- CC(=O)Oc1ccccc1C(=O)O [Acetylsalicylic acid, acetylsalicylic acid] — 56-fold higher, 112.5 mg/kg
- CC(C)Cc1ccc(C(C)C(=O)O)cc1 (centres unmarked) [Ibuprofen] — 19-fold higher, 38 mg/kg

test system: not listed separately; test: in vivo; details: mouse, po

Point of comparison: CC(C(=O)O)c1ccc(-c2ccccc2)c(F)c1 (centres unmarked) [Flurbiprofen], LD50 at 168 h 210 mg/kg. Against it:
- CC(=O)Oc1ccccc1C(=O)O [Acetylsalicylic acid, acetylsalicylic acid] — 6-fold higher, 1260 mg/kg

same assay, conditions: mouse, po, LD50 dose obtained experimentally, with emorfazone 240, p.o., combined with emorfazone 240 mg/kg

Point of comparison: CC(C(=O)O)c1ccc(-c2ccccc2)c(F)c1 (centres unmarked) [Flurbiprofen], LD50 at 168 h 155 mg/kg. Against it:
- CC(=O)Oc1ccccc1C(=O)O [Acetylsalicylic acid, acetylsalicylic acid] — 6.5-fold higher, 1000 mg/kg

test system: biosynthesis of prostaglandin; test: inhibition of the biosynthesis of prostaglandin; type: biochemical; details: in words

With CCOc1c(N2CCOCC2)cnn(C)c1=O [Emorfazone, 4-ethoxy-2-methyl-5-morpholino-3(2H)-pyridazinone] the “inhibition of the biosynthesis of prostaglandin (emorfazone)” value was “does not inhibit the biosynthesis of prostaglandin”.

test system: not listed separately; test: Analgesic Test by Phenylquinone Writhing Method; type: in vivo, Male ddY mice; details: Mus musculus, po, read-out: ED50 (dose that reduced the number of writhes of the control group by 50%), drug alone
Description: Male ddY mice (18-22 g) fasted for 18 hours were divided into test groups and a control group of 7 animals per group. […] The number of writhes was counted for 20 minutes after the p-phenylquinone injection.

Point of comparison: CC(C)Cc1ccc(C(C)C(=O)O)cc1 (centres unmarked) [Ibuprofen], ED50 13.5 mg/kg. Against it:
- CC(=O)Oc1ccccc1C(=O)O [Acetylsalicylic acid, acetylsalicylic acid] — 11-fold higher, 155 mg/kg
- CCOc1c(N2CCOCC2)cnn(C)c1=O [Emorfazone, 4-ethoxy-2-methyl-5-morpholino-3(2H)-pyridazinone] — 3-fold higher, 40 mg/kg
- CC(C(=O)O)c1ccc(-c2ccccc2)c(F)c1 (centres unmarked) [Flurbiprofen] — 6.8-fold lower, 2 mg/kg

same assay, conditions: combination with emorfazone, in words

With CC(=O)Oc1ccccc1C(=O)O [Acetylsalicylic acid, acetylsalicylic acid] the “combined analgesic effect with emorfazone” value (from here on “combined analgesic effect”) was “for the most part a synergistic response”.
With CC(C(=O)O)c1ccc(-c2ccccc2)c(F)c1 (centres unmarked) [Flurbiprofen] the “combined analgesic effect” value was “for the most part a synergistic response”.
For CC(C)Cc1ccc(C(C)C(=O)O)cc1 (centres unmarked) [Ibuprofen], the “combined analgesic effect” value was “for the most part a synergistic response”.

same assay, conditions: p.o.; combined with emorfazone 10 mg/kg (1/4 of its ED50)

Point of comparison: CC(=O)Oc1ccccc1C(=O)O [Acetylsalicylic acid, acetylsalicylic acid], “ED50 dose obtained experimentally, with emorfazone 10” value 115 mg/kg. Against it:
- CC(C(=O)O)c1ccc(-c2ccccc2)c(F)c1 (centres unmarked) [Flurbiprofen] — 19-fold lower, 6.2 mg/kg
- CC(C)Cc1ccc(C(C)C(=O)O)cc1 (centres unmarked) [Ibuprofen] — 14-fold lower, 8 mg/kg

same assay, conditions: p.o.; combined with emorfazone 10 mg/kg; theoretical additive dose

Point of comparison: CC(C(=O)O)c1ccc(-c2ccccc2)c(F)c1 (centres unmarked) [Flurbiprofen], “theoretical additive ED50 dose, with emorfazone 10” value 8 mg/kg. Against it:
- CC(=O)Oc1ccccc1C(=O)O [Acetylsalicylic acid, acetylsalicylic acid] — 15-fold higher, 116.3 mg/kg
- CC(C)Cc1ccc(C(C)C(=O)O)cc1 (centres unmarked) [Ibuprofen] — within 1.5-fold, 10.1 mg/kg

same assay, conditions: p.o.; combined with emorfazone 20 mg/kg (1/2 of its ED50)

Point of comparison: CC(C)Cc1ccc(C(C)C(=O)O)cc1 (centres unmarked) [Ibuprofen], “ED50 dose obtained experimentally, with emorfazone 20” value 3 mg/kg. Against it:
- CC(=O)Oc1ccccc1C(=O)O [Acetylsalicylic acid, acetylsalicylic acid] — 13-fold higher, 40 mg/kg
- CC(C(=O)O)c1ccc(-c2ccccc2)c(F)c1 (centres unmarked) [Flurbiprofen] — 3.8-fold lower, 0.8 mg/kg

same assay, conditions: p.o.; combined with emorfazone 20 mg/kg; theoretical additive dose

Point of comparison: CC(C)Cc1ccc(C(C)C(=O)O)cc1 (centres unmarked) [Ibuprofen], “theoretical additive ED50 dose, with emorfazone 20” value 6.8 mg/kg. Against it:
- CC(=O)Oc1ccccc1C(=O)O [Acetylsalicylic acid, acetylsalicylic acid] — 11-fold higher, 77.5 mg/kg
- CC(C(=O)O)c1ccc(-c2ccccc2)c(F)c1 (centres unmarked) [Flurbiprofen] — 6.8-fold lower, 1 mg/kg

test system: not listed separately; test: Analgesic Test by Randall-Selitto Method (carrageenin inflammatory pain); type: in vivo, Male Wistar rats; details: Rattus norvegicus, po, read-out: ED50 (dose that increased the mean pain threshold of the control group by 50%), drug alone
Description: Male Wistar rats (120-140 g) fasted for 18 hours were divided into test groups and a control group of 5 animals per group. […] The pain threshold was measured after the carrageenin injection at hourly intervals for 3 hours with an analgesy meter (Ugo Basile, Milan).

Point of comparison: CC(=O)Oc1ccccc1C(=O)O [Acetylsalicylic acid, acetylsalicylic acid], ED50 340 mg/kg. Against it:
- CCOc1c(N2CCOCC2)cnn(C)c1=O [Emorfazone, 4-ethoxy-2-methyl-5-morpholino-3(2H)-pyridazinone] — 19-fold lower, 18 mg/kg
- CC(C(=O)O)c1ccc(-c2ccccc2)c(F)c1 (centres unmarked) [Flurbiprofen] — 15-fold lower, 22 mg/kg
- CC(C)Cc1ccc(C(C)C(=O)O)cc1 (centres unmarked) [Ibuprofen] — 2.8-fold lower, 120 mg/kg

same assay, conditions: p.o.; combined with emorfazone 4.5 mg/kg

Point of comparison: CC(C(=O)O)c1ccc(-c2ccccc2)c(F)c1 (centres unmarked) [Flurbiprofen], “ED50 dose obtained experimentally, with emorfazone 4.5” value 15 mg/kg. Against it:
- CC(=O)Oc1ccccc1C(=O)O [Acetylsalicylic acid, acetylsalicylic acid] — 16-fold higher, 240 mg/kg
- CC(C)Cc1ccc(C(C)C(=O)O)cc1 (centres unmarked) [Ibuprofen] — 1.5-fold lower, 10 mg/kg

same assay, conditions: p.o.; combined with emorfazone 4.5 mg/kg; theoretical additive dose

Point of comparison: CC(=O)Oc1ccccc1C(=O)O [Acetylsalicylic acid, acetylsalicylic acid], “theoretical additive ED50 dose, with emorfazone 4.5” value 255 mg/kg. Against it:
- CC(C(=O)O)c1ccc(-c2ccccc2)c(F)c1 (centres unmarked) [Flurbiprofen] — 15-fold lower, 16.5 mg/kg
- CC(C)Cc1ccc(C(C)C(=O)O)cc1 (centres unmarked) [Ibuprofen] — 2.8-fold lower, 90 mg/kg

same assay, conditions: p.o.; combined with emorfazone 9 mg/kg

Point of comparison: CC(C)Cc1ccc(C(C)C(=O)O)cc1 (centres unmarked) [Ibuprofen], “ED50 dose obtained experimentally, with emorfazone 9” value 8 mg/kg. Against it:
- CC(=O)Oc1ccccc1C(=O)O [Acetylsalicylic acid, acetylsalicylic acid] — 8.8-fold higher, 70 mg/kg

same assay, conditions: p.o.; combined with emorfazone 9 mg/kg; theoretical additive dose

Point of comparison: CC(C(=O)O)c1ccc(-c2ccccc2)c(F)c1 (centres unmarked) [Flurbiprofen], “theoretical additive ED50 dose, with emorfazone 9” value 11 mg/kg. Against it:
- CC(=O)Oc1ccccc1C(=O)O [Acetylsalicylic acid, acetylsalicylic acid] — 15-fold higher, 170 mg/kg
- CC(C)Cc1ccc(C(C)C(=O)O)cc1 (centres unmarked) [Ibuprofen] — 5.5-fold higher, 60 mg/kg

test system: not given; test: not given; details: p.o., combined with emorfazone 240 mg/kg

Point of comparison: CC(=O)Oc1ccccc1C(=O)O [Acetylsalicylic acid, acetylsalicylic acid], “theoretical additive LD50 dose, with emorfazone 240” value 945 mg/kg. Against it:
- CC(C(=O)O)c1ccc(-c2ccccc2)c(F)c1 (centres unmarked) [Flurbiprofen] — 6-fold lower, 157.5 mg/kg
- CC(C)Cc1ccc(C(C)C(=O)O)cc1 (centres unmarked) [Ibuprofen] — within 1.5-fold, 862.5 mg/kg

test system: not given; test: not given; details: 100 mg/kg, used alone; in words

With CCOc1c(N2CCOCC2)cnn(C)c1=O [Emorfazone, 4-ethoxy-2-methyl-5-morpholino-3(2H)-pyridazinone] the “inhibitory effect of emorfazone alone” value was “did not show any significant effect when used alone”.

same assay, conditions: combination with 100 mg/kg of emorfazone; in words

For CC(=O)Oc1ccccc1C(=O)O [Acetylsalicylic acid, acetylsalicylic acid], the “inhibitory effect in combination with emorfazone” value (from here on “inhibitory effect in combination”) was “not essentially affected”.
For CC(C(=O)O)c1ccc(-c2ccccc2)c(F)c1 (centres unmarked) [Flurbiprofen], the “inhibitory effect in combination” value was “significantly potentiated”.
For CC(C)Cc1ccc(C(C)C(=O)O)cc1 (centres unmarked) [Ibuprofen], the “inhibitory effect in combination” value was “significantly potentiated”.
